In this test the test system is glyphosate-tolerant Palmer Amaranth (Amaranthus palmeri). It is filed as in vivo. The conditions noted are these: glyphosate 1.27 kg/ha; Composition C 1 liter/ha; two weeks after spraying. The protocol:
Various plant treatment products comprising (i) select plant treatment components (e.g., pesticides, fungicides, herbicides) and (ii) one or more microbial fermentation product formulations (Composition A, B, C, and combinations) were tested on (1) rice (Oryza sativa) infected by Sheath Blight Rhizoctonia solani, (2) soybean (Glycine max) infected by Soybean Rust (Phakopsora pachyrhizi), (3) wheat (Triticum aestivum) infected by Stripe Rust (Puccinia striiformis), (4) corn (Zea mays) infected by Gray Leaf Spot (Cercospora zeae-maydis), (5) creeping bentgrass (Agrostis stolonifera) infected by dollar spot (Sclerotina homoeocarpa), and (6) glyphosate-tolerant Palmer Amaranth (Amaranthus palmeri) weed, and compared to controls, including plant treatment component(s) alone.
To test the effects of the inventive plant treatment product on weed survival in herbicide-tolerant Palmer Amaranth (Amaranthus palmeri) plants, the plant treatment product (Composition C+herbicide) or herbicide component (alone) were applied to weeds, in greenhouse conditions. […] The measurements of dry shoot mass and dry root mass were taken two weeks after spraying. […] Thus, the inventive plant treatment product can enhance herbicide susceptibility in herbicide-tolerant plants.

Regarding `O=C(O)CNCP(=O)(O)O` [Herbicide, glyphosate], the “Palmer Amaranth root dry weight per plant in greenhouse conditions” value was determined as 0.768; the “Palmer Amaranth root dry weight, change versus Untreated Control” value is listed as −40.9%; the “Palmer Amaranth root fresh weight per plant in greenhouse conditions” value is reported as 4.70; the “Palmer Amaranth root fresh weight, change versus Untreated Control” value is −51.3%. The “Palmer Amaranth shoot dry weight per plant in greenhouse conditions” value is 5.31; the “Palmer Amaranth shoot dry weight, change versus Untreated Control” value is given as −7.01%; the “Palmer Amaranth shoot fresh weight per plant in greenhouse conditions” value stood at 15.0; the “Palmer Amaranth shoot fresh weight, change versus Untreated Control” value is on record as −20.6%.

For the origin of these results see patent US12245593B2, “Agricultural products and related methods” (priority 2017, dated 2025).
